According to patent US12077503B2, “Substituted cyclic amides and their use as herbicides” (FMC CORPORATION, priority 2015, dated 2024):

Columns and labels:
Format in all cases: in vivo
Kochia (Kochia scoparia) [1] = test: Test A preemergence; details: Bassia scoparia, pre-emergence, 240 h, 0 to 100 scale (0 no effect, 100 complete control), read-out: Plant response rating, Kochia
How it was run: (§1)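 Preemergence directed soil spray on seeded pots, or postemergence application to plants 2–10 cm, one- to two-leaf. Solvent mixture non-phytotoxic, with surfactant. Scored ~10 d later, visually, 0–100 vs untreated.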

[2] = tested on: barnyardgrass (Echinochloa crus-galli); test: Test A preemergence; details: Echinochloa crus-galli, pre-emergence, 240 h, 0 to 100 scale (0 no effect, 100 complete control), read-out: Plant response rating, Barnyardgrass
How it was run: as §1

[3] = tested on: giant foxtail (Setaria faberii); test: Test A preemergence; details: Setaria faberi, pre-emergence, 240 h, 0 to 100 scale (0 no effect, 100 complete control), read-out: Plant response rating, Foxtail, Giant
How it was run: as §1

[4] = tested on: pigweed (Amaranthus retroflexus); test: Test A preemergence; details: Amaranthus retroflexus, pre-emergence, 240 h, 0 to 100 scale (0 no effect, 100 complete control), read-out: Plant response rating, Pigweed
[5] = tested on: ragweed (common ragweed, Ambrosia elatior); test: Test A preemergence; details: Ambrosia artemisiifolia, pre-emergence, 240 h, 0 to 100 scale (0 no effect, 100 complete control), read-out: Plant response rating, Ragweed
How it was run: as §1

[6] = tested on: ryegrass, Italian (Italian ryegrass, Lolium multiflorum); test: Test A preemergence; details: Lolium multiflorum, pre-emergence, 240 h, 0 to 100 scale (0 no effect, 100 complete control), read-out: Plant response rating, Ryegrass, Italian
How it was run: as §1

[7] = tested on: Galium (catchweed bedstraw, Galium aparine); test: Test A postemergence; details: Galium, post-emergence, 240 h, Postemergence
How it was run: as §1

Kochia (Kochia scoparia) [8] = test: Test A postemergence; details: Bassia scoparia, post-emergence, 240 h, Postemergence
How it was run: as §1

[9] = tested on: barnyardgrass (Echinochloa crus-galli); test: Test A postemergence; details: Echinochloa crus-galli, post-emergence, 240 h, Postemergence
How it was run: as §1

[10] = tested on: blackgrass (Alopecurus myosuroides); test: Test A postemergence; details: Alopecurus myosuroides, post-emergence, 240 h, Postemergence
How it was run: as §1

corn (Zea mays) = test: Test A postemergence; details: Zea mays, post-emergence, 240 h, Postemergence
How it was run: as §1

[11] = tested on: giant foxtail (Setaria faberii); test: Test A postemergence; details: Setaria faberi, post-emergence, 240 h, Postemergence
How it was run: as §1

[12] = tested on: pigweed (Amaranthus retroflexus); test: Test A postemergence; details: Amaranthus retroflexus, post-emergence, 240 h, Postemergence
How it was run: as §1

[13] = tested on: ragweed (common ragweed, Ambrosia elatior); test: Test A postemergence; details: Ambrosia artemisiifolia, post-emergence, 240 h, Postemergence
How it was run: as §1

[14] = tested on: ryegrass, Italian (Italian ryegrass, Lolium multiflorum); test: Test A postemergence; details: Lolium multiflorum, post-emergence, 240 h, Postemergence
How it was run: as §1

[15] = tested on: wheat (Triticum aestivum); test: Test A postemergence; details: Triticum aestivum, post-emergence, 240 h, Postemergence
How it was run: as §1

O=C1NC[C@H](c2cncs2)[C@H]1C(=O)Nc1ccccc1F [Compound 1335]
0%: pest or weed control at 500 g/ha (Kochia (Kochia scoparia) [1]; 500 g ai/ha, preemergence) | pest or weed control at 125 g/ha (Kochia (Kochia scoparia) [1]; Preemergence, 125 g ai/ha) | pest or weed control at 500 g/ha ([2]; 500 g ai/ha, preemergence) | pest or weed control at 125 g/ha ([2]; Preemergence, 125 g ai/ha) | pest or weed control at 500 g/ha ([3]; 500 g ai/ha, preemergence) | pest or weed control at 125 g/ha ([3]; Preemergence, 125 g ai/ha) | pest or weed control at 500 g/ha ([4]; 500 g ai/ha, preemergence) | pest or weed control at 125 g/ha ([4]; Preemergence, 125 g ai/ha) | pest or weed control at 500 g/ha ([5]; 500 g ai/ha, preemergence) | pest or weed control at 125 g/ha ([5]; Preemergence, 125 g ai/ha) | pest or weed control at 500 g/ha ([6]; 500 g ai/ha, preemergence) | pest or weed control at 125 g/ha ([6]; Preemergence, 125 g ai/ha) | pest or weed control at 125 g/ha ([7]; 125 g ai/ha, visual rating about 10 d after treatment, read-out: Galium plant response rating (0 to 100 scale)) | pest or weed control at 500 g/ha ([7]; 500 g ai/ha, visual injury, 0 to 100 scale (0 no effect, 100 complete control), approx. 10 d, read-out: Plant response rating, Galium) | pest or weed control at 125 g/ha (Kochia (Kochia scoparia) [8]; 125 g ai/ha, visual rating about 10 d after treatment, read-out: Kochia plant response rating (0 to 100 scale)) | pest or weed control at 500 g/ha (Kochia (Kochia scoparia) [8]; 500 g ai/ha, visual injury, 0 to 100 scale (0 no effect, 100 complete control), approx. 10 d, read-out: Plant response rating, Kochia) | pest or weed control at 125 g/ha ([9]; 125 g ai/ha, visual rating about 10 d after treatment, read-out: Barnyardgrass plant response rating (0 to 100 scale, 0 no effect, 100 complete control)) | pest or weed control at 500 g/ha ([9]; 500 g ai/ha, visual injury, 0 to 100 scale (0 no effect, 100 complete control), approx. 10 d, read-out: Plant response rating, Barnyardgrass) | pest or weed control at 125 g/ha ([10]; 125 g ai/ha, visual rating about 10 d after treatment, read-out: Blackgrass plant response rating (0 to 100 scale)) | pest or weed control at 500 g/ha ([10]; 500 g ai/ha, visual injury, 0 to 100 scale (0 no effect, 100 complete control), approx. 10 d, read-out: Plant response rating, Blackgrass) | plant injury at 125 g/ha (corn (Zea mays); 125 g ai/ha, visual rating about 10 d after treatment, read-out: Corn plant response rating (0 to 100 scale)) | Corn plant response rating (crop injury, 0 = no effect, 100 = complete kill) at 500 g/ha (corn (Zea mays); 500 g ai/ha, visual injury, 0 to 100 scale (0 no effect, 100 complete control), approx. 10 d) | pest or weed control at 125 g/ha ([11]; 125 g ai/ha, visual rating about 10 d after treatment, read-out: Foxtail, Giant plant response rating (0 to 100 scale)) | pest or weed control at 500 g/ha ([11]; 500 g ai/ha, visual injury, 0 to 100 scale (0 no effect, 100 complete control), approx. 10 d, read-out: Plant response rating, Foxtail, Giant) | pest or weed control at 125 g/ha ([12]; 125 g ai/ha, visual rating about 10 d after treatment, read-out: Pigweed plant response rating (0 to 100 scale)) | pest or weed control at 500 g/ha ([12]; 500 g ai/ha, visual injury, 0 to 100 scale (0 no effect, 100 complete control), approx. 10 d, read-out: Plant response rating, Pigweed) | pest or weed control at 125 g/ha ([13]; 125 g ai/ha, visual rating about 10 d after treatment, read-out: Ragweed plant response rating (0 to 100 scale)) | pest or weed control at 500 g/ha ([13]; 500 g ai/ha, visual injury, 0 to 100 scale (0 no effect, 100 complete control), approx. 10 d, read-out: Plant response rating, Ragweed) | pest or weed control at 125 g/ha ([14]; 125 g ai/ha, visual rating about 10 d after treatment, read-out: Ryegrass, Italian plant response rating (0 to 100 scale)) | pest or weed control at 500 g/ha ([14]; 500 g ai/ha, visual injury, 0 to 100 scale (0 no effect, 100 complete control), approx. 10 d, read-out: Plant response rating, Ryegrass, Italian) | plant injury at 125 g/ha ([15]; 125 g ai/ha, visual rating about 10 d after treatment, read-out: Wheat plant response rating (0 to 100 scale)) | plant injury at 500 g/ha ([15]; 500 g ai/ha, visual injury, 0 to 100 scale (0 no effect, 100 complete control), approx. 10 d, read-out: Plant response rating, Wheat)
